The results in this text go back to ChEMBL document CHEMBL1137817, “Potential antitumor-promoting diterpenes from the cones of Pinus luchuensis” (J Nat Prod, 2002).

Molecules are shown by their SMILES.

Common to all, as to format: cell-based
The test system of series [1] is Raji. Kind of series: Inhibition of 12-O-tetradecanoylphorbol 13-acetate-induced Epstein-Barr virus early antigen activation in human Raji cells assessed as EA induction at 1000 mol ratio relative to TPA. More on the design: scale not given: the % may be the effect or the level left. As to conditions: human gammaherpesvirus 4.
The test system of series [2] is Raji. Kind of series: Inhibition of 12-O-tetradecanoylphorbol 13-acetate-induced Epstein-Barr virus early antigen activation in human Raji cells assessed as EA induction at 100 mol ratio relative to TPA. Also on record: scale not given: the % may be the effect or the level left. Conditions: human gammaherpesvirus 4.
Series [3] relates to Raji. The series is described as follows: Inhibition of 12-O-tetradecanoylphorbol 13-acetate-induced Epstein-Barr virus early antigen activation in human Raji cells assessed as EA induction at 10 mol ratio relative to TPA. Also on record: scale not given: the % may be the effect or the level left. As to conditions: human gammaherpesvirus 4.
Series [4] is described as follows: Cytotoxicity against human Raji cells assessed as cell viability at 1000 molar ratio after 48 hours relative to TPA. Conditions: read-out: Activity.
Series [5] has as its system Raji. The series is described as follows: Inhibition of 12-O-tetradecanoylphorbol 13-acetate-induced Epstein-Barr virus early antigen activation in human Raji cells assessed as EA induction at 500 mol ratio relative to TPA. More on the design: scale not given: the % may be the effect or the level left. As to conditions: human gammaherpesvirus 4.

`C=C/C(C)=C/C[C@H]1C(=C)CC[C@@H]2[C@]1(C)CCC[C@]2(C)C(=O)O`: the Activity is 4.4% in the series with Raji [1], 75.3% in the series with Raji [2], 90.5% in the series on Raji [3] and 46.2% in the series on Raji [5]. Further, the viability at 48 h, 1000 molar ratio relative to TPA in series [4] came out at 60%.

For `C=C1CC[C@@H]2[C@](C)(CCC[C@]2(C)C(=O)O)[C@H]1C/C=C(\C)C(=O)O`, the Activity in the series on Raji [1] worked out at 5%; in the series on Raji [2] it was 74.4%; with Raji [3], 93.4%; in the series on Raji [5] it was 47.1%. For the same compound, the viability at 48 h, 1000 molar ratio relative to TPA in series [4] is 60%.

On to `C=C1CC[C@@H]2[C@](C)(CCC[C@]2(C)C(=O)O)[C@H]1C/C=C(\C)C=O`, for which the Activity with Raji [1] worked out at 0%; in the series with Raji [2], 68.5%; with Raji [3] it was 91.4%; in the series with Raji [5], 31.4%. Moreover, the viability at 48 h, 1000 molar ratio relative to TPA in series [4] worked out at 70%.

On to `CC(C)c1ccc2c(c1)CC[C@H]1[C@](C)(C(=O)O)CCC[C@]21C` [DEHYDROABIETIC ACID], for which the Activity amounted to 2.9% in the series with Raji [1], 69.8% with Raji [2], 97.9% in the series on Raji [3] and 32.7% with Raji [5]. Also, the viability at 48 h, 1000 molar ratio relative to TPA in series [4] was determined as 70%.

With `CC1=C(/C=C/C(C)=C/C=C/C(C)=C/C=C/C=C(C)/C=C/C=C(C)/C=C/C2=C(C)CCCC2(C)C)C(C)(C)CCC1` [BETA CAROTENE], the Activity is 9% in the series with Raji [1], 82% in the series on Raji [2], 100% with Raji [3] and 34% with Raji [5]. Moreover, the viability at 48 h, 1000 molar ratio relative to TPA in series [4] was determined as 90%.

Consider `C=C[C@]1(C)C=C2CC[C@@H]3[C@](C)(CCC[C@@]3(C)C(=O)O)[C@H]2CC1` [SANDARACOPIMARIC ACID], for which the Activity worked out at 0% with Raji [1], 70.4% in the series with Raji [2], 91.9% in the series on Raji [3] and 22.5% in the series on Raji [5]. For the same compound, in series [4], the viability at 48 h, 1000 molar ratio relative to TPA worked out at 70%.
